The values below come from patent US11331364B2, “Use for JNK inhibitor molecules for treatment of various diseases” (Xigen Inflammation Ltd., priority 2014, dated 2022).

Like-named read-outs stand apart in the source and are kept apart here. Square brackets hold non-standard residues; d marks the D form. Peptide text beside a SMILES is read from it.

In one assay the target is hJNK2 (Homo sapiens, UniProt P45984). As to the kind of experiment: hJNK2 | IC50. The source says:
(§1) Table printed on a drawing sheet, Fig. 4
Head of the field: hJNK2 | IC50
(§2) The patent's description of the figure: FIG. 4: Table illustrating the inhibitory efficacy of several JNK inhibitors according to the present invention, which are fusion proteins of a JNK inhibitory (poly-)peptide sequence and a transporter sequence. Given are the IC50 values in the nM range, the respective standard error of the mean (SEM) and the number of experiments performed (n).
(§3) First copying reader's note: The sheet prints no unit for IC50 (the description says nM range); decimal commas are used, except for three IC50 cells printed with a point (3820.81, 5340.33, 8130.86).
Where the first naming reader finds the target: head: hJNK2 | IC50

The next assay addresses T1, hJNK1 (Homo sapiens, UniProt P45983).
T1 construct: His; purchased Upstate 14-327
In words: hJNK1 | IC50.
From the text: as §1
Head of the field: hJNK1 | IC50
as §2, §3
Where the first naming reader finds the target: head: hJNK1 | IC50

For a further assay, the target named is hJNK3 (Homo sapiens, UniProt P53779). In words: hJNK3 | IC50.
From the text: as §1
Head of the field: hJNK3 | IC50
as §2, §3
Where the first naming reader finds the target: head: hJNK3 | IC50

Chain of hJNK2 (P45984 whole entry, looked up): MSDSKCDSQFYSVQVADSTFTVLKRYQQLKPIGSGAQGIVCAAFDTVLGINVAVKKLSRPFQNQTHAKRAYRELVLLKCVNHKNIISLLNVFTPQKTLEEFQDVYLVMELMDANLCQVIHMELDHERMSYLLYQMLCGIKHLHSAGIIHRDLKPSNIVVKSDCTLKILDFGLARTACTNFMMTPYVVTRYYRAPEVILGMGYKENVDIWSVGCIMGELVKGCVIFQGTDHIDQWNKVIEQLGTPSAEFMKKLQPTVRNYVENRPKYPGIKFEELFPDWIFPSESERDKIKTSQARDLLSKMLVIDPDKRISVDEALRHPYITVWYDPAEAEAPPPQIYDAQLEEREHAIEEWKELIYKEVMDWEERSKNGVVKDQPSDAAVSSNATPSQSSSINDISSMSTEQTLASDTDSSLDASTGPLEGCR
Chain of hJNK3 (P53779 whole entry, looked up): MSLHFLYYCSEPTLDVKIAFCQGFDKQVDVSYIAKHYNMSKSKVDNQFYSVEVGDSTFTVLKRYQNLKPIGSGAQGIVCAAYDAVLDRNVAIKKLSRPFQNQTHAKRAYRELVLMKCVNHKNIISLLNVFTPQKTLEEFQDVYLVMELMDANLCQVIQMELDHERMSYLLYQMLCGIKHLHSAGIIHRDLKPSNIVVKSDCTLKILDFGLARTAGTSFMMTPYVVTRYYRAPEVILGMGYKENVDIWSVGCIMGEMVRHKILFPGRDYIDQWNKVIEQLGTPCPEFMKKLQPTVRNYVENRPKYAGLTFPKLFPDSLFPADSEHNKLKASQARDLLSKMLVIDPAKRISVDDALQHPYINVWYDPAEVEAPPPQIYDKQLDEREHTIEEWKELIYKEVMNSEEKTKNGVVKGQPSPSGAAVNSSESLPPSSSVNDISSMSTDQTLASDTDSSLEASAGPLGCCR
T1 sequence (P45983 whole entry, looked up): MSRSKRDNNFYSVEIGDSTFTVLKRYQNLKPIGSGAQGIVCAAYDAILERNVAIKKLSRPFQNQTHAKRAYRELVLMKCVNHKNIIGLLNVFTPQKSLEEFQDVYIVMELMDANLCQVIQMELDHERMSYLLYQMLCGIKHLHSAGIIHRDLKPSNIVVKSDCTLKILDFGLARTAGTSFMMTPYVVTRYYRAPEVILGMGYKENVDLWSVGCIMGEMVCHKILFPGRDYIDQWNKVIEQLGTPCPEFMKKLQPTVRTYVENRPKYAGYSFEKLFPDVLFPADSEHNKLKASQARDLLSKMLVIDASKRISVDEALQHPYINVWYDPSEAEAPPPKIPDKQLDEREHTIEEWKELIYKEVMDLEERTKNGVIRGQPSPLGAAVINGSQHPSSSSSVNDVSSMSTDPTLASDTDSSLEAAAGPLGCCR

With `CC(C)C[C@H](NC(=O)[C@H](C)NC(=O)[C@H](CCCCN)NC(=O)[C@H](CCCNC(=N)N)NC(=O)[C@@H](CCCNC(=N)N)NC(=O)[C@H](CCCNC(=N)N)NC(=O)[C@H](CCCNC(=N)N)NC(=O)[C@H](CCC(N)=O)NC(=O)[C@@H](CCCNC(=N)N)NC(=O)[C@H](CCCNC(=N)N)NC(=O)[C@H](CCCCN)NC(=O)[C@H](CCCCN)NC(=O)[C@H](N)CCCNC(=N)N)C(=O)N[C@H](CCCNC(=N)N)C(=O)N[C@@H](CC(C)C)C(=O)N[C@H](Cc1ccccc1)C(N)=O` [SEQ ID NO: 190, rKKRrQRRrRKALrLf] (H-[dR]KKR[dR]QRR[dR]RKAL[dR]L[dF]-NH2), the IC50 (in general, the concentration that inhibits the measured activity by half) on hJNK2 (read-out: hJNK2 | IC50) was determined as 148 nM; at hJNK1 (read-out: hJNK1 | IC50), 8970 nM; on hJNK3 (read-out: hJNK3 | IC50), 159 nM.

As to `CC(C)C[C@H](NC(=O)[C@H](CC(N)=O)NC(=O)[C@H](CC(C)C)NC(=O)[C@@H](NC(=O)[C@@H](CO)NC(=O)[C@@H]1CCCN1C(=O)[C@H](CCCNC(=N)N)NC(=O)[C@@H](CCCCN)NC(=O)[C@@H]1CCCN1C(=O)[C@H](CCCNC(=N)N)NC(=O)[C@@H](CCCNC(=N)N)NC(=O)[C@H](CCCNC(=N)N)NC(=O)[C@H](CCCNC(=N)N)NC(=O)[C@H](CCC(N)=O)NC(=O)[C@@H](CCCNC(=N)N)NC(=O)[C@H](CCCNC(=N)N)NC(=O)[C@H](CCCCN)NC(=O)[C@H](CCCCN)NC(=O)[C@H](N)CCCNC(=N)N)[C@@H](C)O)C(=O)N[C@H](Cc1ccccc1)C(N)=O` [SEQ ID NO: 185, rKKRrQRRrRPkRPsTLNLf] (H-[dR]KKR[dR]QRR[dR]RP[dK]RP[dS]TLNL[dF]-NH2), the IC50 on hJNK2 (read-out: hJNK2 | IC50) was 72.1 nM; on hJNK1 (read-out: hJNK1 | IC50), 766 nM; on hJNK3 (read-out: hJNK3 | IC50), 35.5 nM.

For `CC(C)C[C@H](NC(=O)[C@H](CC(N)=O)NC(=O)[C@H](CC(C)C)NC(=O)[C@@H](NC(=O)[C@@H](CCC(N)=O)NC(=O)[C@@H]1CCCN1C(=O)[C@H](CCCNC(=N)N)NC(=O)[C@@H](CCCCN)NC(=O)[C@@H]1CCCN1C(=O)[C@H](CCCNC(=N)N)NC(=O)[C@@H](CCCNC(=N)N)NC(=O)[C@H](CCCNC(=N)N)NC(=O)[C@H](CCCNC(=N)N)NC(=O)[C@H](CCC(N)=O)NC(=O)[C@@H](CCCNC(=N)N)NC(=O)[C@H](CCCNC(=N)N)NC(=O)[C@H](CCCCN)NC(=O)[C@H](CCCCN)NC(=O)[C@H](N)CCCNC(=N)N)[C@@H](C)O)C(=O)N[C@H](Cc1ccccc1)C(N)=O` [SEQ ID NO: 186, rKKRrQRRrRPkRPqTLNLf] (H-[dR]KKR[dR]QRR[dR]RP[dK]RP[dQ]TLNL[dF]-NH2), the IC50 is 52.6 nM on hJNK2 (read-out: hJNK2 | IC50), 1020 nM at hJNK1 (read-out: hJNK1 | IC50) and 44.2 nM on hJNK3 (read-out: hJNK3 | IC50).

As to `CC(C)C[C@H](NC(=O)[C@H](CC(N)=O)NC(=O)[C@H](CC(C)C)NC(=O)[C@@H](NC(=O)[C@@H](NC(=O)[C@@H]1CCCN1C(=O)[C@H](CCCNC(=N)N)NC(=O)[C@H](CCCCN)NC(=O)[C@@H]1CCCN1C(=O)[C@@H]1CCCN1C(=O)[C@H](CCCNC(=N)N)NC(=O)[C@H](CCCNC(=N)N)NC(=O)[C@H](CCCNC(=N)N)NC(=O)[C@H](CCC(N)=O)NC(=O)[C@H](CCCNC(=N)N)NC(=O)[C@H](CCCNC(=N)N)NC(=O)[C@H](CCCCN)NC(=O)[C@H](CCCCN)NC(=O)[C@H](CCCNC(=N)N)NC(=O)CN)[C@@H](C)O)[C@@H](C)O)C(=O)N[C@@H](Cc1ccccc1)C(=O)N1CCC[C@H]1C(=O)N[C@@H](CCC(N)=O)C(=O)N[C@H](C(=O)N1CCC[C@H]1C(=O)N[C@@H](CCCNC(=N)N)C(=O)N[C@@H](CO)C(=O)N[C@@H](CCC(N)=O)C(=O)N[C@@H](CC(=O)O)C(N)=O)C(C)C` [SEQ ID NO: 194] (H-GRKKRRQRRRPPKRPTTLNLFPQVPRSQD-NH2), the figures for the IC50 against hJNK2, against hJNK1 and against hJNK3 were 12.7 nM, 14 nM and 2.59 nM, respectively.

On to `CC(C)C[C@H](NC(=O)[C@H](C)NC(=O)[C@H](CCCCN)NC(=O)[C@H](CCCNC(=N)N)NC(=O)[C@H](CCCCN)NC(=O)CNC(=O)[C@@H](CCCNC(=N)N)NC(=O)[C@H](CCCNC(=N)N)NC(=O)[C@H](CCCNC(=N)N)NC(=O)[C@H](CCC(N)=O)NC(=O)[C@@H](CCCNC(=N)N)NC(=O)[C@H](CCCNC(=N)N)NC(=O)[C@H](CCCCN)NC(=O)[C@H](CCCCN)NC(=O)[C@H](N)CCCNC(=N)N)C(=O)N[C@H](CCCNC(=N)N)C(=O)N[C@@H](CC(C)C)C(=O)N[C@H](Cc1ccccc1)C(N)=O` [SEQ ID NO: 189, rKKRrQRRrGKRKALrLf] (H-[dR]KKR[dR]QRR[dR]GKRKAL[dR]L[dF]-NH2), for which the values for the IC50 against hJNK2, against hJNK1 and against hJNK3 were 176 nM, 22300 nM and 128 nM, respectively.

Consider `CC(C)C[C@H](NC(=O)[C@H](CC(=O)O)NC(=O)[C@@H](NC(=O)[C@@H]1CCCN1C(=O)[C@H](CCCNC(=N)N)NC(=O)[C@@H](CCCNC(=N)N)NC(=O)[C@H](CCCNC(=N)N)NC(=O)[C@H](CCCNC(=N)N)NC(=O)[C@H](CCC(N)=O)NC(=O)[C@@H](CCCNC(=N)N)NC(=O)[C@H](CCCNC(=N)N)NC(=O)[C@H](CCCCN)NC(=O)[C@H](CCCCN)NC(=O)[C@H](N)CCCNC(=N)N)[C@@H](C)O)C(=O)N[C@H](CCCNC(=N)N)C(=O)N[C@@H](CC(C)C)C(=O)N[C@H](Cc1c[nH]c2ccccc12)C(N)=O` [SEQ ID NO: 180, rKKRrQRRrRPTDLrLw] (H-[dR]KKR[dR]QRR[dR]RPTDL[dR]L[dW]-NH2), for which the IC50 came out at 118 nM at hJNK2 (read-out: hJNK2 | IC50), 265 nM on hJNK1 (read-out: hJNK1 | IC50) and 47 nM at hJNK3 (read-out: hJNK3 | IC50).

As for `CC(C)C[C@H](NC(=O)[C@H](CC(N)=O)NC(=O)[C@H](CC(C)C)NC(=O)[C@@H](NC(=O)[C@@H](NC(=O)[C@@H]1CCCN1C(=O)[C@H](CCCNC(=N)N)NC(=O)[C@H](CCCNC(=N)N)NC(=O)[C@H](CCCNC(=N)N)NC(=O)[C@H](CCC(N)=O)NC(=O)[C@H](CCCNC(=N)N)NC(=O)[C@H](CCCNC(=N)N)NC(=O)[C@H](CCCCN)NC(=O)[C@H](CCCCN)NC(=O)[C@H](CCCNC(=N)N)NC(=O)CN)[C@@H](C)O)[C@@H](C)O)C(=O)N[C@@H](Cc1ccccc1)C(=O)N1CCC[C@H]1C(=O)N[C@@H](CCC(N)=O)C(=O)N[C@H](C(=O)N1CCC[C@H]1C(=O)N[C@@H](CCCNC(=N)N)C(=O)N[C@@H](CO)C(=O)N[C@@H](CCC(N)=O)C(=O)N[C@@H](CC(=O)O)C(N)=O)C(C)C` [SEQ ID NO: 195] (H-GRKKRRQRRRPTTLNLFPQVPRSQD-NH2), the IC50 turned out to be 11.3 nM against hJNK2, 10.8 nM on hJNK1 and 4.92 nM on hJNK3.

Turning to `CC(C)C[C@H](NC(=O)[C@@H](NC(=O)[C@@H](NC(=O)[C@@H]1CCCN1C(=O)[C@H](CCCNC(=N)N)NC(=O)[C@@H](CCCCN)NC(=O)[C@@H]1CCCN1C(=O)[C@H](CCCNC(=N)N)NC(=O)[C@@H](CCCNC(=N)N)NC(=O)[C@H](CCCNC(=N)N)NC(=O)[C@H](CCCNC(=N)N)NC(=O)[C@H](CCC(N)=O)NC(=O)[C@@H](CCCNC(=N)N)NC(=O)[C@H](CCCNC(=N)N)NC(=O)[C@H](CCCCN)NC(=O)[C@H](CCCCN)NC(=O)[C@H](N)CCCNC(=N)N)[C@@H](C)O)[C@@H](C)O)C(=O)N[C@H](CCCNC(=N)N)C(=O)N[C@@H](CC(C)C)C(=O)N[C@H](Cc1ccccc1)C(N)=O` [SEQ ID NO: 173, rKKRrQRRrRPkRPTTLrLf] (H-[dR]KKR[dR]QRR[dR]RP[dK]RPTTL[dR]L[dF]-NH2), the values for the IC50 on hJNK2 (read-out: hJNK2 | IC50), at hJNK1 (read-out: hJNK1 | IC50) and on hJNK3 (read-out: hJNK3 | IC50) were 30 nM, 88.4 nM and 16.8 nM, respectively.

For the molecule `CC(C)C[C@H](NC(=O)[C@H](CC(N)=O)NC(=O)[C@H](CC(C)C)NC(=O)[C@@H](NC(=O)[C@@H](C)NC(=O)[C@@H]1CCCN1C(=O)[C@H](CCCNC(=N)N)NC(=O)[C@@H](CCCNC(=N)N)NC(=O)[C@H](CCCNC(=N)N)NC(=O)[C@H](CCC(N)=O)NC(=O)[C@@H](CCCNC(=N)N)NC(=O)[C@H](CCCNC(=N)N)NC(=O)[C@H](CCCCN)NC(=O)[C@H](CCCCN)NC(=O)[C@H](N)CCCNC(=N)N)[C@@H](C)O)C(=O)N[C@H](Cc1ccccc1)C(N)=O` [SEQ ID NO: 183, rKKRrQRrRPaTLNLf] (H-[dR]KKR[dR]QR[dR]RP[dA]TLNL[dF]-NH2), the half-inhibitory concentration (IC50) was determined as 427 nM at hJNK2 (read-out: hJNK2 | IC50), 2590 nM on hJNK1 (read-out: hJNK1 | IC50) and 199 nM on hJNK3 (read-out: hJNK3 | IC50).

With `CC(C)C[C@H](NC(=O)[C@H](CC(N)=O)NC(=O)[C@H](CC(C)C)NC(=O)[C@@H](NC(=O)[C@@H](C)NC(=O)[C@@H]1CCCN1C(=O)[C@H](CCCNC(=N)N)NC(=O)[C@H](CCCCN)NC(=O)[C@@H](CCCNC(=N)N)NC(=O)[C@H](CCCNC(=N)N)NC(=O)[C@H](CCC(N)=O)NC(=O)[C@@H](CCCNC(=N)N)NC(=O)[C@H](CCCNC(=N)N)NC(=O)[C@H](CCCCN)NC(=O)[C@H](CCCCN)NC(=O)[C@H](N)CCCNC(=N)N)[C@@H](C)O)C(=O)N[C@H](Cc1ccccc1)C(N)=O` [SEQ ID NO: 184, rKKRrQRrKRPaTLNLf] (H-[dR]KKR[dR]QR[dR]KRP[dA]TLNL[dF]-NH2), the IC50 on hJNK2 (read-out: hJNK2 | IC50) worked out at 206 nM; at hJNK1 (read-out: hJNK1 | IC50), 2430 nM; at hJNK3 (read-out: hJNK3 | IC50) it was 129 nM.

Take `CC(C)C[C@H](NC(=O)[C@H](CC(N)=O)NC(=O)[C@H](CC(C)C)NC(=O)[C@@H](NC(=O)[C@@H](NC(=O)[C@@H]1CCCN1C(=O)[C@H](CCCNC(=N)N)NC(=O)[C@@H](CCCNC(=N)N)NC(=O)[C@H](CCCNC(=N)N)NC(=O)[C@H](CCC(N)=O)NC(=O)[C@@H](CCCNC(=N)N)NC(=O)[C@H](CCCNC(=N)N)NC(=O)[C@H](CCCCN)NC(=O)[C@H](CCCCN)NC(=O)[C@H](N)CCCNC(=N)N)[C@@H](C)O)[C@@H](C)O)C(=O)N[C@H](Cc1ccccc1)C(N)=O` [SEQ ID NO: 175, rKKRrQRrRPTTLNLf] (H-[dR]KKR[dR]QR[dR]RPTTLNL[dF]-NH2): the IC50 at hJNK2 (read-out: hJNK2 | IC50) was 82.3 nM; on hJNK1 (read-out: hJNK1 | IC50), 185 nM; on hJNK3 (read-out: hJNK3 | IC50), 60.6 nM.
